Here are results for 4 molecules from PMC7179205, “An Improved Synthesis of Key Intermediate to the Formation of Selected Indolin-2-Ones Derivatives Incorporating Ultrasound and Deep Eutectic Solvent (DES) Blend of Techniques, for Some Biological Activities and Molecular Docking Studies” (Molecules, 2020).

As a reminder, the melting point is the temperature of the solid-liquid transition.

The subject of series [1] is gastric mucosal damage. The series is described as follows: acute ulcerogenic activity (severity index of gastric mucosal damage). It counts as in vivo, Wistar rats. As to conditions: test compounds 30 mg/kg oral; indomethacin 10 mg/kg or 20 mg/kg; 17 h after dose; mean ± SEM. On the procedure: Four compounds, namely, 4c (Ar = 4-chlorophenyl), 4f (Ar = 2-chlorophenyl), 4i (Ar = 4-fluoro-3-chlorophenyl), and 4n (Ar = 2-methylphenyl) were selected for their ulcerogenic activity. This selection was based on their anti-inflammatory and analgesic activity. Compounds were evaluated at an oral dose of 30 mg/kg relative to 10 mg/kg indomethacin.
Acute ulcerogenic activity evaluation of the synthesized compounds was carried out according to the method described using Wistar rats of either sex (180–220 g). The animals were distributed into control, group, and test group. Each group consisted of six rats. All the rats fasted for 24 h with free access to water. To the control group, 1% CMC solution was administered p.o; to the standard group, indomethacin at a concentration of 20 mg/kg was administered orally; and to the test groups, tested compounds were administered orally at a concentration of 30 mg/kg. After the dose administration animals were kept for 17 h. After this, the animals were sacrificed for the appraisal of ulcerogenic assessment. The stomach was taken out from the animal body and washed with flushing water, then with a cotton swab wetted with saline (0.9%) and pinned on wax-coated try. The glandular portion of the stomach was cleaned again with saline to closely identify the presence of a type of ulcers or hemorrhage mark using a magnifying glass. The mucosal injury of the stomach was evaluated as per the following system: 0.5 = redness; 1 = spot ulcer; 1.5 = hemorrhage streak; 2 = ulcers < 3; 3 = ulcers > 3 < 5. The value obtained as a result of the mean score of the individual treated group—mean score of control is referred to as the severity index of the gastric mucosal damage.

The test system of series [2] is gastric tissue. The series is described as follows: lipid peroxidation (MDA content of gastric tissue). It counts as in vivo. As to conditions: for MDA content (lipid peroxidation): as repeated in Table 4, the values are: MDA content (lipid peroxidation); for Nanomoles of MDA Content ± SEM/ 100 mg Tissue: gastric tissue. On the procedure: Gastrointestinal (GI) ulceration, bleeding, and renal problems are common complications of NSAID’S consumption, which is directly related to lipid peroxidation. […] It was measured as the nmol of MDA/100 mg of gastric tissue. We have found the Lipid peroxidation value was maximum 6.71 ± 0.18 for indomethacin, whereas 3.89 ± 0.17, 4.08 ± 0.22, 4.26 ± 0.12, and 4.81 ± 0.13 for compounds 4i, 4c, 4f, and 4n, respectively.
The method adopted for lipid peroxidation is the same as Ohkawaet al. and the recent work of our researchers.

Series [3] concerns acetic acid-induced writhing. The series is described as follows: acetic acid-induced writhing method (analgesic activity). It counts as in vivo, Swiss albino mice. The conditions noted are these: for inhibition in vivo at 10 mg/kg: Mus musculus, read-out: % Analgesic Activity; for Potency (analgesic): relative to indomethacin = 1.00; for Mean with ± SEM: writhes counted for 15 min; for analgesic activity (in words): compared with standard indomethacin. As for the experimental part:
All the tested compounds and standard drugs are evaluated at 10 mg/kg oral dose.
The analgesic activity of the tested compounds was carried out by acetic acid-induced writhing method as given in the literature using Swiss albino mice of either sex (25–35 g). The writh were induced in the albino mice using an intraperitoneal injection of 1% acetic acid solution. The standard drug indomethacin and test compounds were evaluated at a concentration of 10 mg/kg of the body weight. The animals were divided into groups and each group consisted of six animals. One group was kept as control, one as standard, and other as test groups. To the control group, 0.1% CMC solution was administered p.o; to the standard group, the standard drug was administered orally, and to the test group, test compounds were administered orally. After 60 min of the 0.1% CMC solution/standard drug/tested compound administration, 0.1 ml of 1% (v/v) acetic acid solution in distilled water was injected intraperitoneally in all the mice in each group including the control group. The writhing (a contraction of the abdomen, turning of trunk, and extension of hind limbs) was counted after 5 min of acetic acid administration and were counted for a period of 15 min. The percentage of analgesic activity was calculated using the following formula.
(Mean wriths of control—mean wriths of std./test) / mean wriths of control) × 100
A general note: In writhing tests, fewer writhes than in controls are read as antinociception.

For series [4], the system named is Rat Paw Edema. The series is described as follows: carrageenan-induced hind paw edema method (anti-inflammatory activity). Format: in vivo, Wistar albino rats. As to conditions: for inhibition in vivo at 10 mg/kg: Rattus norvegicus, po; for inhibition in vivo at 10 mg/kg / % Age Inhibition of Rat Paw Edema, 4 H / anti-inflammatory activity (in words): oral dose 10 mg/kg; for inhibition in vivo at 10 mg/kg / % Age Inhibition of Rat Paw Edema, 4 H: mean ± SEM; for Potency (anti-inflammatory): relative to indomethacin = 1.00; for anti-inflammatory activity (in words): compared with standard indomethacin. As for the experimental part:
The anti-inflammatory activity of the synthesized compounds (4a–n) was evaluated by the carrageenan-induced paw edema method. An oral dose of 10 mg/kg was used for compounds and compared with the standard. Anti-inflammatory activity was accessed through percentage inhibition after 2 and 4 h (Table 1).
Compounds produced were assessed for their anti-inflammatory activity using the carrageenan-induced hind paw edema method. The anti-inflammatory activity was carried out using Wistar albino rats of either sex (150–220 g) using a Digital Plethysmometer (Model No. 7140, UGO BASILE). The edema was induced by using 1% carrageenan solution. Indomethacin was used as a standard drug. The anti-inflammatory activity of the standard drug and tested compounds was determined at a dose of 10 mg/kg body weight. The animals were divided into groups containing six animals each and the initial paw volume of each rat was noted by the NaCl displacement method. One group was kept as control, one as standard, and the rest of the groups of compounds were to be tested. To the control group, 1% CMC solution was administered p.o. To the standard group, the standard drug was administered orally. To the test group, tested compounds were administered orally. After 60 min of the 1% CMC solution/standard drug/test compound administration, 0.1 ml of 1% (w/v) carrageenan was injected in the plantar region of the hind limb (right) of all the rats in each group including the control group. The paw volume was again measured after the time interval of 2 and 4 h. Using the following formula, inflammation was calculated as percentage inhibition for the test and reference compounds
(Final foot volume of control—final foot volume of std./test) × 100 / final foot volume of control)
A general note: In the carrageenan paw model, swelling and tenderness develop within hours.

[5] abbreviates: 2 h, 2 h, read-out: % Age Inhibition of Rat Paw Edema, 2 H.
Where [6] appears, read: 4 h, 4 h, read-out: % Age Inhibition of Rat Paw Edema, 4 H.

Several values for one entry are separate records, joined by “and”; a condition that tells them apart may be missing. Identical values can stand only once. Entries after “also recorded” stand apart in the source; their conditions may differ. Like-named read-outs stand apart in the source and are kept apart here.

Molecule `O=C1C(=NNc2nc(-c3cc4ccccc4oc3=O)cs2)c2ccccc2N1CNc1ccc(Cl)cc1` [Compound 4c, 1-[(4-Chloro-phenylamino)-methyl]-3-{[4-(2-oxo-2H-chromen-3-yl)-thiazol-2-yl]-hydrazono}-1,3-dihydro-indol-2-one] came in with a melting point of 233 to 235 °C. Also, in series [1], the “Severity Index” value is given as 0.666 ± 0.105. Also, in series [2], the MDA content (lipid peroxidation) was found to be 4.08 ± 0.22 nmol MDA/100 mg tissue; the “Nanomoles of MDA Content ± SEM/ 100 mg Tissue” value was 4.08 ± 0.22 nmol of MDA/100 mg of gastric tissue and 4.26 ± 0.12 nmol of MDA/100 mg of gastric tissue. Also, the inhibition in vivo at 10 mg/kg in series [3] (oral dose 10 mg/kg, mean ± SEM) is 59.9 ± 0.846%. The “Potency (analgesic)” value in series [3] (10 mg/kg) is recorded as 0.81. Moreover, the “Mean with ± SEM” value in series [3] (oral dose 10 mg/kg) worked out at 13.00 ± 0.2582. The inhibition in vivo at 10 mg/kg in series [4] (setting [5]) turned out to be 59.29 ± 0.143%. Moreover, in series [4] (setting [6]), the inhibition in vivo at 10 mg/kg was found to be 30.17 ± 0.294%. Further, in series [4] (10 mg/kg), the “Potency (anti-inflammatory)” value is on record as 0.36.
Molecule `O=C1C(=NNc2nc(-c3cc4ccccc4oc3=O)cs2)c2ccccc2N1CNc1ccccc1Cl` [Compound 4f, 1-[(2-chloro-phenylamino)-methyl]-3-{[4-(2-oxo-2H-chromen-3-yl)-thiazol-2-yl]-hydrazono}-1,3-dihydro-indol-2-one] came in with a melting point of 239 to 241 °C. Besides, the “Severity Index” value in series [1] came to 0.666 ± 0.105. In addition, in series [2], the MDA content (lipid peroxidation) turned out to be 4.26 ± 0.12 nmol MDA/100 mg tissue; the “Nanomoles of MDA Content ± SEM/ 100 mg Tissue” value was 4.26 ± 0.12 nmol of MDA/100 mg of gastric tissue and 4.08 ± 0.22 nmol of MDA/100 mg of gastric tissue. In series [3] (oral dose 10 mg/kg, mean ± SEM), the inhibition in vivo at 10 mg/kg turned out to be 69.36 ± 0.585%. In series [3] (oral dose 10 mg/kg), the “analgesic activity (in words)” value was “very good analgesic activity” and the “Mean with ± SEM” value was 9.93 ± 0.386. Further, in series [3] (10 mg/kg), the “Potency (analgesic)” value is 0.94. For the same molecule, the inhibition in vivo at 10 mg/kg in series [4] (setting [5]) was 48.38 ± 0.219%. For the same molecule, in series [4] (setting [6]), the inhibition in vivo at 10 mg/kg turned out to be 72.4%. The “% Age Inhibition of Rat Paw Edema, 4 H” value in series [4] (4 h, 10 mg/kg) is on record as 72.42 ± 0.183 %. In series [4] (10 mg/kg), the “anti-inflammatory activity (in words)” value is reported as “good anti-inflammatory activity; also recorded: significant anti-inflammatory activity” and the “Potency (anti-inflammatory)” value is recorded as 0.88.
`O=C1C(=NNc2nc(-c3cc4ccccc4oc3=O)cs2)c2ccccc2N1CNc1ccc(F)c(Cl)c1` [Compound 4i, 1-[(3-Chloro-4-fluoro-phenylamino)-methyl]-3-{[4-(2-oxo-2H-chromen-3-yl)-thiazol-2-yl]-hydrazono}-1,3-dihydro-indol-2-one]: the melting point lay within 246 to 248 °C. In addition, the “Severity Index” value in series [1] came out at 0.500 ± 0.129. In series [2], the MDA content (lipid peroxidation) turned out to be 3.89 ± 0.17 nmol MDA/100 mg tissue and the “Nanomoles of MDA Content ± SEM/ 100 mg Tissue” value is 3.89 ± 0.17 nmol of MDA/100 mg of gastric tissue. Besides, the inhibition in vivo at 10 mg/kg in series [3] (oral dose 10 mg/kg, mean ± SEM) was determined as 66.3 ± 1.01%. In addition, the “analgesic activity (in words)” value in series [3] (oral dose 10 mg/kg, 10 mg/kg) is recorded as “very good analgesic activity; also recorded: good analgesic activity”. Further, the “Potency (analgesic)” value in series [3] (10 mg/kg) turned out to be 0.90. In addition, in series [3] (oral dose 10 mg/kg), the “Mean with ± SEM” value stood at 10.93 ± 0.3128. Also, in series [4] (setting [5]), the inhibition in vivo at 10 mg/kg was determined as 31.27 ± 0.188%. For the same molecule, in series [4] (setting [6]), the inhibition in vivo at 10 mg/kg is 63.95 ± 0.218%. The “anti-inflammatory activity (in words)” value in series [4] was “moderate anti-inflammatory activity”. The “Potency (anti-inflammatory)” value in series [4] (10 mg/kg) is 0.77.
For the molecule `COc1ccc2c(c1)c(CC(=O)O)c(C)n2C(=O)c1ccc(Cl)cc1` [Indomethacin, reference compound], the “Severity Index” value in series [1] amounted to 4.500 ± 0.316. The “Nanomoles of MDA Content ± SEM/ 100 mg Tissue” value in series [2] and in series [2] (listed as indomethacin) was 6.71 ± 0.18 nmol of MDA/100 mg of gastric tissue each time. Besides, the inhibition in vivo at 10 mg/kg in series [3] (oral dose 10 mg/kg, mean ± SEM) came out at 73.6%; in series [4] (setting [5]), 66.34 ± 0.051%; in series [4] (setting [6]), 82%. In series [3] (oral dose 10 mg/kg, mean ± SEM, 10 mg/kg), the “% Analgesic Activity” value is 73.61 ± 0.315 %. Also, the “Potency (analgesic)” value in series [3] (10 mg/kg) stood at 1.00. Moreover, the “Mean with ± SEM” value in series [3] (oral dose 10 mg/kg) is listed as 8.55 ± 0.394. Besides, the “% Age Inhibition of Rat Paw Edema, 4 H” value in series [4] (4 h, 10 mg/kg) is reported as 82.05 ± 0.08%. Moreover, the “Potency (anti-inflammatory)” value in series [4] (10 mg/kg) is given as 1.00.
